Measured values taken from patent US9562085B2, “Antimicrobial peptide” (priority 2013, dated 2017).
Non-standard residues stand in square brackets, D forms with d. Residues, ends and D or L forms follow the SMILES beside them. *: point of attachment. X1 = NCCOCCOCCOCCOCCOCCOCCOCCOCCOCCOCCOC(=O)*; Ahx = NCCCCCC(=O)O

tested on: S. aureus JAR; type: cell-based; conditions: JAR, 2 h
Description: S. aureus JAR is described in Campoccia et al. (Int. J. Artif. Organs, 2008 September; 31(9):841-7).
For the in vitro killing assay with P10 variants, S. aureus JAR ([…] CFU/ml) were incubated for 2 hours at 37° C. with various concentrations of the peptides in PBS or in PBS/human plasma (1/1, v/v). […] The LC99.9 is the average value of two independent experiments.

Compound | LC99.9 (μM) (50% plasma) [µM] | LC99.9 (μM) (PBS) [µM]
CC[C@H](C)[C@H](NC(=O)[C@H](CCCCN)NC(=O)[C@H](CCCCN)NC(=O)[C@H](Cc1ccc(O)cc1)NC(=O)[C@H](CCC(=O)O)NC(=O)[C@H](CCCNC(=N)N)NC(=O)[C@H](C)NC(=O)[C@H](CC(C)C)NC(=O)OCCOCCOCCOCCOCCOCCOCCOCCOCCOCCOCCN)C(=O)N[C@H](C(=O)N[C@@H](CCC(=O)O)C(=O)N[C@@H](CCCCN)C(=O)N[C@@H](CC(C)C)C(=O)N[C@@H](CCCCN)C(=O)N[C@@H](CCCNC(=N)N)C(=O)N[C@@H](Cc1c[nH]c2ccccc12)C(=O)N[C@@H](CC(C)C)C(=O)N[C@@H](CCCNC(=N)N)C(=O)N[C@@H](CCC(N)=O)C(=O)N[C@H](C(=O)N[C@@H](CC(C)C)C(=O)N[C@@H](CCCNC(=N)N)C(=O)N[C@H](C(=O)N[C@@H](CC(C)C)C(=O)N[C@@H](CCCNC(=N)N)C(N)=O)[C@@H](C)O)C(C)C)C(C)C [Peptide 1302-7, oLAREYKKIVEKLKRWLRQVLRTLRB] (X1-LAREYKKIVEKLKRWLRQVLRTLR-NH2; N-terminus assumed) | 102.4 | 1.6
CC[C@H](C)[C@H](NC(=O)[C@H](CCCCN)NC(=O)[C@H](CCCCN)NC(=O)[C@H](Cc1ccc(O)cc1)NC(=O)[C@H](CCC(=O)O)NC(=O)[C@@H](CCCNC(=N)N)NC(=O)[C@H](C)NC(=O)[C@H](CC(C)C)NC(C)=O)C(=O)N[C@H](C(=O)N[C@@H](CCC(=O)O)C(=O)N[C@@H](CCCCN)C(=O)N[C@@H](CC(C)C)C(=O)N[C@@H](CCCCN)C(=O)N[C@@H](CCCNC(=N)N)C(=O)N[C@@H](Cc1c[nH]c2ccccc12)C(=O)N[C@@H](CC(C)C)C(=O)N[C@@H](CCCNC(=N)N)C(=O)N[C@@H](CCC(N)=O)C(=O)N[C@H](C(=O)N[C@@H](CC(C)C)C(=O)N[C@@H](CCCNC(=N)N)C(=O)N[C@H](C(=O)N[C@@H](CC(C)C)C(=O)N[C@@H](CCCNC(=N)N)C(N)=O)[C@@H](C)O)C(C)C)C(C)C [Peptide 1301-3, JLArEYKKIVEKLKRWLRQVLRTLRB] (Ac-LA[dR]EYKKIVEKLKRWLRQVLRTLR-NH2) | 38.4 | 0.6
Ac-LAREYKKIVEKLKRFLRQVLRTLR-NH2 [Peptide 1302-40, JLAREYKKIVEKLKRFLRQVLRTLRB] | 76.8 | 1.6
CC[C@H](C)[C@H](NC(=O)[C@H](CCCCN)NC(=O)[C@H](CCCCN)NC(=O)[C@H](Cc1ccc(O)cc1)NC(=O)[C@H](CCC(=O)O)NC(=O)[C@H](CCCNC(=N)N)NC(=O)[C@H](C)NC(=O)[C@H](CC(C)C)NC(C)=O)C(=O)N[C@H](C(=O)N[C@@H](CCC(=O)O)C(=O)N[C@@H](CCCCN)C(=O)N[C@@H](CC(C)C)C(=O)N[C@@H](CCCCN)C(=O)N[C@@H](CCCNC(=N)N)C(=O)N[C@@H](Cc1c[nH]c2ccccc12)C(=O)N[C@@H](CC(C)C)C(=O)N[C@@H](CCCNC(=N)N)C(=O)N[C@@H](CCC(N)=O)C(=O)N[C@H](C(=O)N[C@@H](CC(C)C)C(=O)N[C@@H](CCCNC(=N)N)C(=O)N[C@H](C(=O)N[C@H](CC(C)C)C(=O)N[C@@H](CCCNC(=N)N)C(N)=O)[C@@H](C)O)C(C)C)C(C)C [Peptide 1301-23, JLAREYKKIVEKLKRWLRQVLRTlRB] (Ac-LAREYKKIVEKLKRWLRQVLRT[dL]R-NH2) | 32.0 | 0.4
Ac-LAREYKKIVEKLKRWLRQVL-NH2 [Peptide 1302-60, JLAREYKKIVEKLKRWLRQVLB] | 102.4 | 1.6
Ac-LAREYKKIVEKLKRWLRAVLRTLR-NH2 [Peptide 1302-43, JLAREYKKIVEKLKRWLRAVLRTLRB] | 102.4 | 1.6
Ac-VAREYKKIVEKLKRWLRQVLRTLR-NH2 [Peptide 1302-18, JVAREYKKIVEKLKRWLRQVLRTLRB] | 76.8 | 1.6
CC[C@@H](C)[C@@H](NC(=O)[C@H](CCCCN)NC(=O)[C@H](CCCCN)NC(=O)[C@H](Cc1ccc(O)cc1)NC(=O)[C@H](CCC(=O)O)NC(=O)[C@H](CCCNC(=N)N)NC(=O)[C@H](C)NC(=O)[C@H](CC(C)C)NC(C)=O)C(=O)N[C@H](C(=O)N[C@@H](CCC(=O)O)C(=O)N[C@@H](CCCCN)C(=O)N[C@@H](CC(C)C)C(=O)N[C@@H](CCCCN)C(=O)N[C@@H](CCCNC(=N)N)C(=O)N[C@@H](Cc1c[nH]c2ccccc12)C(=O)N[C@@H](CC(C)C)C(=O)N[C@@H](CCCNC(=N)N)C(=O)N[C@@H](CCC(N)=O)C(=O)N[C@H](C(=O)N[C@@H](CC(C)C)C(=O)N[C@@H](CCCNC(=N)N)C(=O)N[C@H](C(=O)N[C@@H](CC(C)C)C(=O)N[C@@H](CCCNC(=N)N)C(N)=O)[C@@H](C)O)C(C)C)C(C)C [Peptide 1301-8, JLAREYKKiVEKLKRWLRQVLRTLRB] (Ac-LAREYKK[dI]VEKLKRWLRQVLRTLR-NH2) | 38.4 | 0.6
Ac-AAREYKKIVEKLKRWLRQVLRTLR-NH2 [Peptide 1302-19, JAAREYKKIVEKLKRWLRQVLRTLRB] | 76.8 | 1.6
CC[C@H](C)[C@H](NC(=O)[C@H](CCCCN)NC(=O)[C@H](CCCCN)NC(=O)[C@H](Cc1ccc(O)cc1)NC(=O)[C@H](CCC(=O)O)NC(=O)[C@H](CCCNC(=N)N)NC(=O)[C@H](C)NC(=O)[C@H](CC(C)C)NC(C)=O)C(=O)N[C@H](C(=O)N[C@@H](CCC(=O)O)C(=O)N[C@@H](CCCCN)C(=O)N[C@@H](CC(C)C)C(=O)N[C@@H](CCCCN)C(=O)N[C@@H](CCCNC(=N)N)C(=O)N[C@@H](Cc1c[nH]c2ccccc12)C(=O)N[C@@H](CC(C)C)C(=O)N[C@@H](CCCNC(=N)N)C(=O)N[C@@H](CCC(N)=O)C(=O)N[C@H](C(=O)N[C@@H](CC(C)C)C(=O)N[C@@H](CCCNC(=N)N)C(=O)N[C@H](C(=O)N[C@@H](CC(C)C)C(=O)N[C@@H](CCCNC(=N)N)C(=O)NCCCCCC(=O)NCCCCCC(N)=O)[C@@H](C)O)C(C)C)C(C)C [Peptide 1302-4, JLAREYKKIVEKLKRWLRQVLRTLRZZB] (Ac-LAREYKKIVEKLKRWLRQVLRTLR[Ahx][Ahx]-NH2) | 38.4 | 0.8
CC[C@H](C)[C@H](NC(=O)[C@H](CCCCN)NC(=O)[C@H](CCCCN)NC(=O)[C@@H](Cc1ccc(O)cc1)NC(=O)[C@H](CCC(=O)O)NC(=O)[C@H](CCCNC(=N)N)NC(=O)[C@H](C)NC(=O)[C@H](CC(C)C)NC(C)=O)C(=O)N[C@H](C(=O)N[C@@H](CCC(=O)O)C(=O)N[C@@H](CCCCN)C(=O)N[C@@H](CC(C)C)C(=O)N[C@@H](CCCCN)C(=O)N[C@@H](CCCNC(=N)N)C(=O)N[C@@H](Cc1c[nH]c2ccccc12)C(=O)N[C@@H](CC(C)C)C(=O)N[C@@H](CCCNC(=N)N)C(=O)N[C@@H](CCC(N)=O)C(=O)N[C@H](C(=O)N[C@@H](CC(C)C)C(=O)N[C@@H](CCCNC(=N)N)C(=O)N[C@H](C(=O)N[C@@H](CC(C)C)C(=O)N[C@@H](CCCNC(=N)N)C(N)=O)[C@@H](C)O)C(C)C)C(C)C [Peptide 1301-5, JLAREyKKIVEKLKRWLRQVLRTLRB] (Ac-LARE[dY]KKIVEKLKRWLRQVLRTLR-NH2) | 38.4 | 0.6
Ac-LLREYKKIVEKLKRWLRQVLRTLR-NH2 [Peptide 1302-20, JLLREYKKIVEKLKRWLRQVLRTLRB] | 102.4 | 1.6
Ac-LARQYKKIVEKLKRWLRQVLRTLR-NH2 [Peptide 1302-25, JLARQYKKIVEKLKRWLRQVLRTLRB] | 51.2 | 1.2
